Test results taken from patent US20040018941A1, “Fused-benzene derivatives of thiouracil, herbicidal and desiccant compositions contaning them” (ISHIHARA SANGYO KAISHA, LTD., priority 2002, published 2004).

Tests used:
Format in all cases: in vivo
Details in all cases: rating 0-100 (0 no damage, 100 complete death), 14 days after application
[1] = tested on: upland rice (Oryza sp., var. Tebonnet, RICE); experiment: Pre-emerge crop damage, greenhouse screen, RICE
Source text: (§1) A standard greenhouse herbicide activity screening system was used to evaluate the herbicidal efficacy and crop safety of these test compounds. Seven broadleaf weed species including redroot pigweed (Amaranthus retroflexus, AMARE), velvetleaf (Abutilon theophrasti, ABUTH), sicklepod (Cassia obtusifolia, CASOB), ivyleaf morningglory (Ipomoea hederacea, IPOHE), lambsquarters (Chenopodium album, CHEAL), common ragweed (Ambrosia artemisiifolia L., AMBEL), and cocklebur (Xanthium strumarium, XANST) were used as test species. Four grass weed species including green foxtail (Setaria viridis, SETVI), barnyardgrass (Echinochloa crus-galli, ECHCG), johnsongrass (Sorghum halepense, SORHA), and large crabgrass (Digitaria sanguinalis, DIGSA) were also used. In addition, three crop species, field corn (Zea mays L., var. Dekalb 527, CORN), soybean (Glycine max L., var. Pella 86, SOY), and upland rice (Oryza sp., var. Tebonnet, RICE) were included.
(§2) All plants were grown in 10 cm square plastic pots which were filled with a sandy loam soil mix. For pre-emerge tests, seeds were planted one day prior to application of the test compounds. For post-emerge tests, seeds were planted 8-21 days prior to the test to allow emergence and good foliage development prior to application of the test substances. At the time of the post-emerge application, plants of all species were usually at the 2-3 leaf stage of development.
(§3) All test compounds were dissolved in acetone and applied to the test units in a volume of 187 l/ha. Test materials were applied at rates ranging from 15 g ai/ha to 1000 g ai/ha using a track sprayer equipped with a TJ8001 E even flow flat fan spray nozzle. Plants were arranged on a shelf so that the top of the canopy (post-emerge) or top of the soil surface (pre-emerge) was 40-45 cm below the nozzle. Pressurized air was used to force the test solution through the nozzle as it was mechanically advanced over the top of all test plants/pots. This application simulates a typical commercial field herbicide application.
(§4) In the post-emerge test, a commercial non-ionic surfactant was also included (0.25% v/v) to enhance wetting of the leaf surfaces of target plants. Immediately after application, test units of the pre-emerge applications were watered at the soil surface to incorporate the test materials.
(§5) At 14 days after application of the test materials, phytotoxicity ratings were recorded. A rating scale of 0-100 was used as previously described in Research Methods in Weed Science, 2nd edition, B. Truelove, Ed., Southern Weed Science Society, Auburn University, Auburn, Ala., 1977. Briefly, “0” corresponds to no damage and “100” corresponds to complete death of all plants in the test unit. This scale was used both to determine efficacy against weed species and damage to crop species. Herbicide activity data for various compounds of this invention, which are shown by compound No. in Tables 1-7, are shown in Tables 8 and 9.

[2] = tested on: field corn (Zea mays L., var. Dekalb 527, CORN); experiment: Pre-emerge crop damage, greenhouse screen, CORN
Source text: as §1, §2, §3, §4, §5

[3] = tested on: velvetleaf (Abutilon theophrasti, ABUTH); experiment: Pre-emerge herbicidal activity, greenhouse screen, ABUTH
Source text: as §1, §2, §3, §4, §5

[4] = tested on: green foxtail (Setaria viridis, SETVI); experiment: Pre-emerge herbicidal activity, greenhouse screen, SETVI
Source text: as §1, §2, §3, §4, §5

[5] = tested on: barnyardgrass (Echinochloa crus-galli, ECHCG); experiment: Post-emerge herbicidal activity, greenhouse screen, ECHCG
Source text: as §1, §2, §3, §4, §5

[6] = tested on: velvetleaf (Abutilon theophrasti, ABUTH); experiment: Post-emerge herbicidal activity, greenhouse screen, ABUTH
Source text: as §1, §2, §3, §4, §5

[7] = tested on: barnyardgrass (Echinochloa crus-galli, ECHCG); experiment: Pre-emerge herbicidal activity, greenhouse screen, ECHCG
Source text: as §1, §2, §3, §4, §5

[8] = tested on: ivyleaf morningglory (Ipomoea hederacea, IPOHE); experiment: Post-emerge herbicidal activity, greenhouse screen, IPOHE
Source text: as §1, §2, §3, §4, §5

[9] = tested on: johnsongrass (Sorghum halepense, SORHA); experiment: Post-emerge herbicidal activity, greenhouse screen, SORHA
Source text: as §1, §2, §3, §4, §5

[10] = tested on: soybean (Glycine max L., var. Pella 86, SOY); experiment: Pre-emerge crop damage, greenhouse screen, SOY
Source text: as §1, §2, §3, §4, §5

[11] = tested on: upland rice (Oryza sp., var. Tebonnet, RICE); experiment: Post-emerge crop damage, greenhouse screen, RICE
Source text: as §1, §2, §3, §4, §5

[12] = tested on: large crabgrass (Digitaria sanguinalis, DIGSA); experiment: Post-emerge herbicidal activity, greenhouse screen, DIGSA
Source text: as §1, §2, §3, §4, §5

[13] = tested on: green foxtail (Setaria viridis, SETVI); experiment: Post-emerge herbicidal activity, greenhouse screen, SETVI
Source text: as §1, §2, §3, §4, §5

[14] = tested on: large crabgrass (Digitaria sanguinalis, DIGSA); experiment: Pre-emerge herbicidal activity, greenhouse screen, DIGSA
Source text: as §1, §2, §3, §4, §5

[15] = tested on: field corn (Zea mays L., var. Dekalb 527, CORN); experiment: Post-emerge crop damage, greenhouse screen, CORN
Source text: as §1, §2, §3, §4, §5

[16] = tested on: redroot pigweed (Amaranthus retroflexus, AMARE); experiment: Pre-emerge herbicidal activity, greenhouse screen, AMARE
Source text: as §1, §2, §3, §4, §5

[17] = tested on: lambsquarters (Chenopodium album, CHEAL); experiment: Pre-emerge herbicidal activity, greenhouse screen, CHEAL
Source text: as §1, §2, §3, §4, §5

[18] = tested on: sicklepod (Cassia obtusifolia, CASOB); experiment: Pre-emerge herbicidal activity, greenhouse screen, CASOB
Source text: as §1, §2, §3, §4, §5

[19] = tested on: common ragweed (Ambrosia artemisiifolia L., AMBEL); experiment: Pre-emerge herbicidal activity, greenhouse screen, AMBEL
Source text: as §1, §2, §3, §4, §5

[20] = tested on: johnsongrass (Sorghum halepense, SORHA); experiment: Pre-emerge herbicidal activity, greenhouse screen, SORHA
Source text: as §1, §2, §3, §4, §5

[21] = tested on: common ragweed (Ambrosia artemisiifolia L., AMBEL); experiment: Post-emerge herbicidal activity, greenhouse screen, AMBEL
Source text: as §1, §2, §3, §4, §5

[22] = tested on: lambsquarters (Chenopodium album, CHEAL); experiment: Post-emerge herbicidal activity, greenhouse screen, CHEAL
Source text: as §1, §2, §3, §4, §5

[23] = tested on: redroot pigweed (Amaranthus retroflexus, AMARE); experiment: Post-emerge herbicidal activity, greenhouse screen, AMARE
Source text: as §1, §2, §3, §4, §5

[24] = tested on: soybean (Glycine max L., var. Pella 86, SOY); experiment: Post-emerge crop damage, greenhouse screen, SOY
Source text: as §1, §2, §3, §4, §5

[25] = tested on: sicklepod (Cassia obtusifolia, CASOB); experiment: Post-emerge herbicidal activity, greenhouse screen, CASOB
Source text: as §1, §2, §3, §4, §5

[26] = tested on: ivyleaf morningglory (Ipomoea hederacea, IPOHE); experiment: Pre-emerge herbicidal activity, greenhouse screen, IPOHE
Source text: as §1, §2, §3, §4, §5

Cc1nc2c(Cl)cc(F)c(-n3c(=O)cc(C(F)(F)F)n(C)c3=S)c2o1 [Compound 1-2]
75: Post-emerge Herbicidal Activity RICE (crop damage) ([11]; 63 g ai/ha)
25: Post-emerge Herbicidal Activity CORN (crop damage) ([15]; 63 g ai/ha)
35: Post-emerge Herbicidal Activity CORN (crop damage) ([15]; 250 g ai/ha)
80: Post-emerge Herbicidal Activity RICE (crop damage) ([11]; 250 g ai/ha)
100: Pre-emerge Herbicidal Activity RICE (crop damage) ([1]; 250 g ai/ha) | Pre-emerge Herbicidal Activity CORN (crop damage) ([2]; 63 g ai/ha) | Pre-emerge Herbicidal Activity CORN (crop damage) ([2]; 250 g ai/ha) | Pre-emerge Herbicidal Activity ABUTH ([3]; 63 g ai/ha) | Pre-emerge Herbicidal Activity ABUTH ([3]; 250 g ai/ha) | Pre-emerge Herbicidal Activity SETVI ([4]; 63 g ai/ha) | Pre-emerge Herbicidal Activity SETVI ([4]; 250 g ai/ha) | Post-emerge Herbicidal Activity ECHCG ([5]; 63 g ai/ha) | Post-emerge Herbicidal Activity ECHCG ([5]; 250 g ai/ha) | Post-emerge Herbicidal Activity ABUTH ([6]; 63 g ai/ha) | Post-emerge Herbicidal Activity ABUTH ([6]; 250 g ai/ha) | Pre-emerge Herbicidal Activity ECHCG ([7]; 63 g ai/ha) | Pre-emerge Herbicidal Activity ECHCG ([7]; 250 g ai/ha) | Post-emerge Herbicidal Activity IPOHE ([8]; 63 g ai/ha) | Post-emerge Herbicidal Activity IPOHE ([8]; 250 g ai/ha) | Post-emerge Herbicidal Activity SORHA ([9]; 63 g ai/ha) | Post-emerge Herbicidal Activity SORHA ([9]; 250 g ai/ha) | Pre-emerge Herbicidal Activity SOY (crop damage) ([10]; 63 g ai/ha) | Pre-emerge Herbicidal Activity SOY (crop damage) ([10]; 250 g ai/ha) | Post-emerge Herbicidal Activity DIGSA ([12]; 250 g ai/ha) | Post-emerge Herbicidal Activity SETVI ([13]; 63 g ai/ha) | Post-emerge Herbicidal Activity SETVI ([13]; 250 g ai/ha) | Pre-emerge Herbicidal Activity DIGSA ([14]; 63 g ai/ha) | Pre-emerge Herbicidal Activity DIGSA ([14]; 250 g ai/ha) | Pre-emerge Herbicidal Activity AMARE ([16]; 63 g ai/ha) | Pre-emerge Herbicidal Activity AMARE ([16]; 250 g ai/ha) | Pre-emerge Herbicidal Activity CHEAL ([17]; 63 g ai/ha) | Pre-emerge Herbicidal Activity CHEAL ([17]; 250 g ai/ha) | Pre-emerge Herbicidal Activity CASOB ([18]; 63 g ai/ha) | Pre-emerge Herbicidal Activity CASOB ([18]; 250 g ai/ha) | Pre-emerge Herbicidal Activity AMBEL ([19]; 63 g ai/ha) | Pre-emerge Herbicidal Activity AMBEL ([19]; 250 g ai/ha) | Pre-emerge Herbicidal Activity SORHA ([20]; 63 g ai/ha) | Pre-emerge Herbicidal Activity SORHA ([20]; 250 g ai/ha) | Post-emerge Herbicidal Activity AMBEL ([21]; 63 g ai/ha) | Post-emerge Herbicidal Activity AMBEL ([21]; 250 g ai/ha) | Post-emerge Herbicidal Activity CHEAL ([22]; 63 g ai/ha) | Post-emerge Herbicidal Activity CHEAL ([22]; 250 g ai/ha) | Post-emerge Herbicidal Activity AMARE ([23]; 63 g ai/ha) | Post-emerge Herbicidal Activity AMARE ([23]; 250 g ai/ha) | Post-emerge Herbicidal Activity SOY (crop damage) ([24]; 63 g ai/ha) | Post-emerge Herbicidal Activity SOY (crop damage) ([24]; 250 g ai/ha) | Post-emerge Herbicidal Activity CASOB ([25]; 63 g ai/ha) | Post-emerge Herbicidal Activity CASOB ([25]; 250 g ai/ha) | Pre-emerge Herbicidal Activity IPOHE ([26]; 63 g ai/ha) | Pre-emerge Herbicidal Activity IPOHE ([26]; 250 g ai/ha)
99: Pre-emerge Herbicidal Activity RICE (crop damage) ([1]; 63 g ai/ha) | Post-emerge Herbicidal Activity DIGSA ([12]; 63 g ai/ha)
